The source made the active and inactive calls. The rule behind the calls is not given here.
Columns and labels:
[1] = target: T1, ATP-dependent translocase ABCB1 (Homo sapiens, UniProt P08183); assay: Inhibition of ABCB1 (unknown origin) expressed in human Flp-In-293 cells assessed as potentiation of doxorubicin-induced cytotoxicity at 1 uM by SRB assay relative to control; type: cell-based
HEK293 [2] = assay: Potentiation of doxorubicin-induced cytotoxicity against human Flp-In-293 cells at 2.5 uM by SRB assay relative to control; type: functional
[3] = target: T1, ATP-dependent translocase ABCB1; assay: Inhibition of ABCB1 (unknown origin) expressed in human Flp-In-293 cells assessed as potentiation of vincristine-induced cytotoxicity by SRB assay; type: cell-based
Homo sapiens [4] = species: Homo sapiens; assay: Inhibition of P-gp in human KBVIN cells assessed as potentiation of vincristine-induced cytotoxicity at 1 uM by SRB assay relative to control; type: cell-based
HEK293 [5] = assay: Effect on ABCB1 mRNA expression in human Flp-In-293 cells expressing ABCB1 at 5 uM after 72 hrs by qRT-PCR method; type: functional, cell-based
Homo sapiens [6] = species: Homo sapiens; assay: Inhibition of P-gp in human HeLaS3 cells assessed as potentiation of doxorubicin-induced cytotoxicity at 2.5 uM by SRB assay relative to control; type: cell-based
Homo sapiens [7] = species: Homo sapiens; assay: Inhibition of P-gp in human KBVIN cells assessed as potentiation of paclitaxel-induced cytotoxicity at 2.5 uM by SRB assay relative to control; type: cell-based
HEK293 [8] = assay: Potentiation of paclitaxel-induced cytotoxicity against human Flp-In-293 cells at 1 uM by SRB assay relative to control; type: functional
[9] = Cytotoxicity against human KBVIN assessed as reduction in cell viability by SRB assay; type: cell-based
HEK293 [10] = assay: Potentiation of doxorubicin-induced cytotoxicity against human Flp-In-293 cells at 1 uM by SRB assay relative to control; type: functional
HEK293 [11] = assay: Potentiation of vincristine-induced cytotoxicity against human Flp-In-293 cells at 2.5 uM by SRB assay relative to control; type: functional
[12] = target: T1, ATP-dependent translocase ABCB1; assay: Inhibition of ABCB1 (unknown origin) expressed in human Flp-In-293 cells assessed as potentiation of paclitaxel-induced cytotoxicity at 2.5 uM by SRB assay relative to control; type: cell-based
Homo sapiens [13] = species: Homo sapiens; assay: Inhibition of P-gp in human HeLaS3 cells assessed as potentiation of paclitaxel-induced cytotoxicity at 1 uM by SRB assay relative to control; type: cell-based
[14] = target: T1, ATP-dependent translocase ABCB1; assay: Potency index, ratio of compound effect to verapamil effect for inhibition of ABCB1 (unknown origin) expressed in Flp-In-293 cells assessed as increase in calcein-AM uptake at 5 uM preincubated for 30 mins followed by calcein-AM addition measured after 30 mins by fluorescence spectrometric method; type: cell-based; details: 0.5 h
Homo sapiens [15] = species: Homo sapiens; assay: Inhibition of P-gp in human KBVIN cells assessed as potentiation of doxorubicin-induced cytotoxicity at 1 uM by SRB assay relative to control; type: cell-based
[16] = target: T1, ATP-dependent translocase ABCB1; assay: Inhibition of ABCB1 (unknown origin) expressed in Flp-In-293 cells assessed as increase in calcein-AM uptake at 10 uM preincubated for 30 mins followed by calcein-AM addition measured after 30 mins by fluorescence spectrometric method relative to control; type: cell-based; details: 0.5 h
[17] = target: T1, ATP-dependent translocase ABCB1; assay: Inhibition of ABCB1 (unknown origin) expressed in Flp-In-293 cells assessed as increase in calcein-AM uptake at 5 uM preincubated for 30 mins followed by calcein-AM addition measured after 30 mins by fluorescence spectrometric method relative to control; type: cell-based; details: 0.5 h
Homo sapiens [18] = species: Homo sapiens; assay: Inhibition of P-gp in human HeLaS3 cells assessed as potentiation of vincristine-induced cytotoxicity by SRB assay; type: cell-based
Homo sapiens [19] = species: Homo sapiens; assay: Inhibition of P-gp in human KBVIN cells assessed as potentiation of paclitaxel-induced cytotoxicity by SRB assay; type: cell-based
HEK293 [20] = assay: Cytotoxicity against human Flp-In-293 cells expressing MDR1 assessed as reduction in cell viability by SRB assay; type: ADME, cell-based
Homo sapiens [21] = species: Homo sapiens; assay: Inhibition of P-gp in human HeLaS3 cells assessed as potentiation of paclitaxel-induced cytotoxicity by SRB assay; type: cell-based
Homo sapiens [22] = species: Homo sapiens; assay: Inhibition of P-gp in human KBVIN cells assessed as potentiation of doxorubicin-induced cytotoxicity at 2.5 uM by SRB assay relative to control; type: cell-based
Homo sapiens [23] = species: Homo sapiens; assay: Inhibition of P-gp in human HeLaS3 cells assessed as potentiation of vincristine-induced cytotoxicity at 1 uM by SRB assay relative to control; type: cell-based
Homo sapiens [24] = species: Homo sapiens; assay: Inhibition of P-gp in human KBVIN cells assessed as potentiation of paclitaxel-induced cytotoxicity at 1 uM by SRB assay relative to control; type: cell-based
[25] = target: T1, ATP-dependent translocase ABCB1; assay: Inhibition of ABCB1 (unknown origin) expressed in human Flp-In-293 cells assessed as potentiation of vincristine-induced cytotoxicity at 2.5 uM by SRB assay relative to control; type: cell-based
[26] = target: T1, ATP-dependent translocase ABCB1; assay: Inhibition of ABCB1 (unknown origin) expressed in human Flp-In-293 cells assessed as potentiation of vincristine-induced cytotoxicity at 1 uM by SRB assay relative to control; type: cell-based
Homo sapiens [27] = species: Homo sapiens; assay: Inhibition of P-gp in human HeLaS3 cells assessed as potentiation of doxorubicin-induced cytotoxicity at 1 uM by SRB assay relative to control; type: cell-based
Homo sapiens [28] = species: Homo sapiens; assay: Inhibition of P-gp in human KBVIN cells assessed as potentiation of doxorubicin-induced cytotoxicity by SRB assay; type: cell-based
HeLa S3 = assay: Cytotoxicity against human HeLaS3 assessed as reduction in cell viability by SRB assay; type: cell-based
Homo sapiens [29] = species: Homo sapiens; assay: Inhibition of P-gp in human HeLaS3 cells assessed as potentiation of doxorubicin-induced cytotoxicity by SRB assay; type: cell-based
Homo sapiens [30] = species: Homo sapiens; assay: Inhibition of P-gp in human KBVIN cells assessed as potentiation of vincristine-induced cytotoxicity at 2.5 uM by SRB assay relative to control; type: cell-based
HEK293 [31] = assay: Potentiation of paclitaxel-induced cytotoxicity against human Flp-In-293 cells at 2.5 uM by SRB assay relative to control; type: functional
Homo sapiens [32] = species: Homo sapiens; assay: Inhibition of P-gp in human HeLaS3 cells assessed as potentiation of vincristine-induced cytotoxicity at 2.5 uM by SRB assay relative to control; type: cell-based
HEK293 [33] = assay: Cytotoxicity against human Flp-In-293 cells assessed as reduction in cell viability by SRB assay; type: cell-based
HEK293 [34] = assay: Potentiation of vincristine-induced cytotoxicity against human Flp-In-293 cells at 1 uM by SRB assay relative to control; type: functional
[35] = target: T1, ATP-dependent translocase ABCB1; assay: Inhibition of ABCB1 (unknown origin) expressed in human Flp-In-293 cells assessed as potentiation of doxorubicin-induced cytotoxicity at 2.5 uM by SRB assay relative to control; type: cell-based
HEK293 [36] = assay: Effect on ABCB1 mRNA expression in human Flp-In-293 cells at 5 uM after 72 hrs by qRT-PCR method; type: functional, cell-based
Homo sapiens [37] = species: Homo sapiens; assay: Inhibition of P-gp in human KBVIN cells assessed as potentiation of vincristine-induced cytotoxicity by SRB assay; type: cell-based
[38] = target: T1, ATP-dependent translocase ABCB1; assay: Inhibition of ABCB1 (unknown origin) expressed in human Flp-In-293 cells assessed as potentiation of paclitaxel-induced cytotoxicity by SRB assay; type: cell-based
Homo sapiens [39] = species: Homo sapiens; assay: Inhibition of P-gp in human HeLaS3 cells assessed as potentiation of paclitaxel-induced cytotoxicity at 2.5 uM by SRB assay relative to control; type: cell-based
[40] = target: T1, ATP-dependent translocase ABCB1; assay: Inhibition of ABCB1 (unknown origin) expressed in human Flp-In-293 cells assessed as potentiation of paclitaxel-induced cytotoxicity at 1 uM by SRB assay relative to control; type: cell-based
[41] = target: T1, ATP-dependent translocase ABCB1; assay: Inhibition of ABCB1 (unknown origin) expressed in human Flp-In-293 cells assessed as potentiation of doxorubicin-induced cytotoxicity by SRB assay; type: cell-based

T1 sequence (P08183 whole entry): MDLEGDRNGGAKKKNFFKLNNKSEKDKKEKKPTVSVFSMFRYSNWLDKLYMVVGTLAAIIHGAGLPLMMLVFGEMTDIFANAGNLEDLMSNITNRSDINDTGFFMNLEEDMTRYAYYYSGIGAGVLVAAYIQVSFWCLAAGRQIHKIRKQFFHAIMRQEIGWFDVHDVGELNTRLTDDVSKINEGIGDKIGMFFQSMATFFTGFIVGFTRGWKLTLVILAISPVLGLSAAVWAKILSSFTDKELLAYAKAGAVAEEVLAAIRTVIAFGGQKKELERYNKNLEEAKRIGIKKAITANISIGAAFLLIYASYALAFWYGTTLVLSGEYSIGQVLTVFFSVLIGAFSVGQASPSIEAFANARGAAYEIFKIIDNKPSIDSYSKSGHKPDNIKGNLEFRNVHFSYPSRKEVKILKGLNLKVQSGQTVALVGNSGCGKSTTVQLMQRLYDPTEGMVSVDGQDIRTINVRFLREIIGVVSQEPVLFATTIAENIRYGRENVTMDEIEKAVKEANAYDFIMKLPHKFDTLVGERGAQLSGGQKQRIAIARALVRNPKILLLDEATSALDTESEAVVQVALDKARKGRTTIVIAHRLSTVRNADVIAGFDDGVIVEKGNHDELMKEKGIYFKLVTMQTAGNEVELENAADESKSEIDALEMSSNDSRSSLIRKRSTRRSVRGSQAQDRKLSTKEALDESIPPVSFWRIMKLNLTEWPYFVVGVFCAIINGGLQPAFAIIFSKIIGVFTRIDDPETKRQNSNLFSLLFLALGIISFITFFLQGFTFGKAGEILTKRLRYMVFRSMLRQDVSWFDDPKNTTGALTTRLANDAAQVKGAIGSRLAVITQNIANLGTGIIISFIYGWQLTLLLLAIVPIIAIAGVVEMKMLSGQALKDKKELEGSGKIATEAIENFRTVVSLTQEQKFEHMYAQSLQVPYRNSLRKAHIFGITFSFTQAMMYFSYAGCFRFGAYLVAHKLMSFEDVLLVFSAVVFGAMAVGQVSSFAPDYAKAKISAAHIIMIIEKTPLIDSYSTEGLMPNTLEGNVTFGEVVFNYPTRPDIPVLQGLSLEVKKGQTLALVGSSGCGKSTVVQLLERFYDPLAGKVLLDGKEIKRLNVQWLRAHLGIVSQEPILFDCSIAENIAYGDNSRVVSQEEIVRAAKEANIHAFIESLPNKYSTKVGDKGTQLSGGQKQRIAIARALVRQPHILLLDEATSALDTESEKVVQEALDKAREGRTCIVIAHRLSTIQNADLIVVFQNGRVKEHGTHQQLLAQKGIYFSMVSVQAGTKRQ

**Q.** With `CCN(CC)CCOc1cc(-c2ccc(OC)c(OC)c2)cc2oc(N)c(-c3cccs3)c12` as the molecule, how does the “fold change (FC)” value [1] read?
**A.** Its value is 3.17.

**Q.** And the “fold change (FC)” value (HEK293 [2])?
**A.** The value was 1.09.

**Q.** And the “inhibition (INH)” value [3]?
**A.** The value was “Dose-dependent effect”.

**Q.** What about the fold change (FC) (Homo sapiens [4]) of the same molecule?
**A.** The fold change (FC) was 240.

**Q.** And the Activity (HEK293 [5])?
**A.** Its Activity is “inactive”.

**Q.** What about the fold change (FC) (Homo sapiens [6]) of the same molecule?
**A.** Its fold change (FC) is 0.93.

**Q.** What about the fold change (FC) (Homo sapiens [7]) of the same molecule?
**A.** The fold change (FC) was 38.7.

**Q.** And the “fold change (FC)” value (HEK293 [8])?
**A.** Its value is 1.35.

**Q.** And the IC50 [9]?
**A.** The IC50 was 18.5 µM.

**Q.** And the “fold change (FC)” value (HEK293 [10])?
**A.** The value was 1.03.

**Q.** And the “fold change (FC)” value (HEK293 [11])?
**A.** Its value is 8.57.

**Q.** And the “fold change (FC)” value [12]?
**A.** The value was 13.68.

**Q.** What about the fold change (FC) (Homo sapiens [13]) of the same molecule?
**A.** The fold change (FC) was 5.49.

**Q.** And the Ratio [14]?
**A.** The Ratio was 3.6.

**Q.** What about the fold change (FC) (Homo sapiens [15]) of the same molecule?
**A.** The fold change (FC) was 1.39.

**Q.** What about the “fold change (FC)” value [16] of the same molecule?
**A.** The value was 11.34.

**Q.** What about the “fold change (FC)” value [17] of the same molecule?
**A.** Its value is 11.12.

**Q.** What about the inhibition (Homo sapiens [18]) of the same molecule?
**A.** Its inhibition is “Dose-dependent effect”.

**Q.** And the inhibition (Homo sapiens [19])?
**A.** Its inhibition is “Dose-dependent effect”.

**Q.** And the IC50 (HEK293 [20])?
**A.** Its IC50 is 31.2 µM.

**Q.** And the inhibition (Homo sapiens [21])?
**A.** Its inhibition is “Dose-dependent effect”.

**Q.** And the fold change (FC) (Homo sapiens [22])?
**A.** Its fold change (FC) is 5.16.

**Q.** And the fold change (FC) (Homo sapiens [23])?
**A.** Its fold change (FC) is 1.23.

**Q.** And the fold change (FC) (Homo sapiens [24])?
**A.** The fold change (FC) was 5.11.

**Q.** What about the “fold change (FC)” value [25] of the same molecule?
**A.** Its value is 17.95.

**Q.** What about the “fold change (FC)” value [26] of the same molecule?
**A.** Its value is 3.37.

**Q.** What about the fold change (FC) (Homo sapiens [27]) of the same molecule?
**A.** The fold change (FC) was 0.8.

**Q.** And the inhibition (Homo sapiens [28])?
**A.** Its inhibition is “Dose-dependent effect”.

**Q.** What about the IC50 (HeLa S3) of the same molecule?
**A.** The IC50 was 21.5 µM.

**Q.** What about the inhibition (Homo sapiens [29]) of the same molecule?
**A.** The inhibition was “Dose-dependent effect”.

**Q.** What about the fold change (FC) (Homo sapiens [30]) of the same molecule?
**A.** Its fold change (FC) is 246.

**Q.** What about the “fold change (FC)” value (HEK293 [31]) of the same molecule?
**A.** The value was 1.47.

**Q.** And the fold change (FC) (Homo sapiens [32])?
**A.** The fold change (FC) was 1.21.

**Q.** And the IC50 (HEK293 [33])?
**A.** The IC50 was 34.9 µM.

**Q.** What about the “fold change (FC)” value (HEK293 [34]) of the same molecule?
**A.** Its value is 7.01.

**Q.** And the “fold change (FC)” value [35]?
**A.** Its value is 26.43.

**Q.** What about the Activity (HEK293 [36]) of the same molecule?
**A.** Its Activity is “inactive”.

**Q.** And the inhibition (Homo sapiens [37])?
**A.** Its inhibition is “Dose-dependent effect”.

**Q.** What about the “inhibition (INH)” value [38] of the same molecule?
**A.** Its value is “Dose-dependent effect”.

**Q.** What about the fold change (FC) (Homo sapiens [39]) of the same molecule?
**A.** The fold change (FC) was 3.85.

**Q.** What about the “fold change (FC)” value [40] of the same molecule?
**A.** Its value is 2.49.

**Q.** And the “inhibition (INH)” value [41]?
**A.** The value was “Dose-dependent effect”.

Reference: ChEMBL document CHEMBL4041509, “Structure-activity relationship study of novel 2-aminobenzofuran derivatives as P-glycoprotein inhibitors” (Eur J Med Chem, 2017)
